Experimental findings from ChEMBL document CHEMBL1145818, “Effect of detergent on "promiscuous" inhibitors” (J Med Chem, 2003) are described below.

The target of test [1] is Chymotrypsinogen A (Bos taurus) (UniProt P00766). The test can be described thus: Concentration required for the inhibition of Chymotrypsinogen.
The target of test [2] is T1, Dihydrofolate reductase (Homo sapiens) (UniProt P00374).
T1 sequence (whole entry): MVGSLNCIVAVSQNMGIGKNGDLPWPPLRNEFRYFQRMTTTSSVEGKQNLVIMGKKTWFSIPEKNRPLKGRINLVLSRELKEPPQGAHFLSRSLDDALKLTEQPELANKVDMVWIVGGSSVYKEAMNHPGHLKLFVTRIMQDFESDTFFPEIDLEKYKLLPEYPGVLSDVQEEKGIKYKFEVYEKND
The test is described as follows: Concentration required for the inhibition of dihydrofolate reductase.

Structures are written as SMILES.

On to `Nc1c(/N=N/c2ccc(-c3ccc(/N=N/c4cc(S(=O)(=O)O)c5ccccc5c4N)cc3)cc2)cc(S(=O)(=O)O)c2ccccc12`, for which the Concentration in test [1] was 40 µM; in test [2], 0.4 µM.
